We go through seven molecules from patent publication US20050004132A1, “Nitrogenous tetrahydropyridyl-alkyl-heterocycles with tnf activity” (priority 2001, published 2005).

SMILES strings stand for the structures. Where a name gives a salt, the structure may show the parent alone.

Turning to `FC(F)(F)c1cccc(C2=CCN(CCc3cccc(-c4ccccn4)c3)CC2)c1` (as salt: oxalate), the melting point is 182 to 186 °C.

`Clc1cccc(C2=CCN(CCc3cccc(-c4ccncc4)c3)CC2)n1` (as salt: oxalate) showed a melting point of 183 to 186 °C.

The molecule `Fc1cccc(C2=CCN(CCc3cccc(-c4ccccn4)c3)CC2)c1` (as salt: oxalate) came in with a melting point of 175 to 177 °C.

Molecule `FC(F)(F)c1cccc(C2=CCN(CCc3cccc(-c4cnccn4)c3)CC2)c1` (as salt: oxalate) [12] displayed a melting point of 205 to 207 °C.

Molecule `FC(F)(F)c1cccc(C2=CCN(CCc3cccc(-c4ccccn4)c3)CC2)n1` (as salt: oxalate) came in with a melting point of 126 to 129 °C.

`FC(F)(F)c1cccc(C2=CCN(CCc3cccc(-c4cnccn4)c3)CC2)c1` (as salt: oxalate) [14]: the melting point lay in the range of 199 to 201 °C.

On to `Cc1ccc(-c2cccc(CCN3CC=C(c4cccc(C(F)(F)F)c4)CC3)c2)cn1` (as salt: oxalate), for which the melting point is 170 to 173 °C.

A word on the melting point: it is the temperature of the solid-liquid transition.
